These are literature values, as cited in patent US20080166420A1, “Krill Oil Compositions” (priority 2007, published 2008).

Molecules are shown by their SMILES.

With `O=C(O)c1cccnc1` [Niacin, niacin], under “clinically shown”, the “C-reactive protein (CRP)” value is “reduce”, the high density lipoproteins result is on record as “significant increase”, the “lipoprotein (a)” value is “significant reduction” and the low density lipoproteins entry is given as “reduction”. In addition, where the note is “clinically shown”, the total cholesterol result was “reduction” and the triglycerides entry is on record as “significant reduction”. Moreover, the fibrinogen result (in vivo) is “reduce”.
